According to patent US20150225369A1, “DDR2 INHIBITORS FOR THE TREATMENT OF OSTEOARTHRITIS” (Merck Patent GmbH, priority 2012, published 2015):

Target: T1, His-tagged human recombinant DDR-2 kinase domain (His-TEV-DDR2 467-855 aa) (Homo sapiens, UniProt Q16832)
T1 construct: His-TEV-DDR2 467-855 aa
T1 sequence (Q16832 467-855): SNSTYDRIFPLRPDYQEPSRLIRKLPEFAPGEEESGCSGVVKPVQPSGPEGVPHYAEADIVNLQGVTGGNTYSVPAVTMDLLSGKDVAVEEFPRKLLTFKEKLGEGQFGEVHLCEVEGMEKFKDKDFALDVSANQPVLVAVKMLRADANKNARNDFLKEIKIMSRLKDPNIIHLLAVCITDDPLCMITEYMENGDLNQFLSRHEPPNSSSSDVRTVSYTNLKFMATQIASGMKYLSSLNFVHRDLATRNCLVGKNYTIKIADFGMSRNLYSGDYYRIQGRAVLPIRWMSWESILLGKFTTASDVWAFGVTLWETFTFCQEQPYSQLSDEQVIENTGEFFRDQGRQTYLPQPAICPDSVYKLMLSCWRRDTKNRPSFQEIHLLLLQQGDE
Assay: Autophosphorylation assay for biochemical activity testing of DDR2 (HTRF)
Method in brief: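 Phospho-tyrosine was detected by HTRF between XL665 anti-6His and cryptate anti-phosphotyrosine PT66 antibodies, using the emission ratio. Inhibition was referenced to the inhibitor-free reaction.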

[1] = biochemical DDR2 autophosphorylation
[2] = 4 nM DDR2 kinase domain, 150 μM ATP, 150 min at 22° C.

| SMILES | IC50 [1] | other results |
| --- | --- | --- |
| CNC(=O)c1cc(Oc2ccc(CNC(=O)Nc3cc(C(F)(F)F)ccc3OCCN3CCCC3)cc2)ccn1 [compound 106, 4-(4-{3-[2-(2-Pyrrolidin-1-yl-ethoxy)-5-trifluoromethyl-phenyl]-ureidomethyl}-phenoxy)-pyridine-2-carboxylic acid methylamide] | 0.14 µM | – |
| COc1cc(Cl)c(C)cc1NC(=O)NCc1ccc(Oc2ccnc(C(=O)NCCCCCCN)c2)cc1 [compound 126, 4-{4-[3-(4-Chloro-2-methoxy-5-methyl-phenyl)-ureidomethyl]-phenoxy}-pyridine-2-carboxylic acid (6-amino-hexyl)-amide] | 0.15 µM | – |
| CNC(=O)c1cc(Oc2ccc(CNC(=O)Nc3cc(C(F)(F)F)c(Cl)cc3OCCN3C(=O)c4ccccc4C3=O)cc2)ccn1 [compound 242, 4-[4-(3-{4-Chloro-2-[2-(1,3-dioxo-1,3-dihydro-isoindol-2-yl)-ethoxy]-5-trifluoromethyl-phenyl}-ureidomethyl)-phenoxy]-pyridine-2-carboxylic acid methylamide] | 0.44 µM | – |
| CNC(=O)c1cc(Oc2ccc(CNC(=O)Nc3ccnc(Cl)c3)cc2)ccn1 [compound 6] | – | IC50 [2]: 1 µM |
| CCN(CC)CCOc1cc(Cl)c(C)cc1NC(=O)NCc1ccc(Oc2ccnc(C(=O)NC)c2)cc1 [compound 117, 4-(4-{3-[4-Chloro-2-(2-diethylamino-ethoxy)-5-methyl-phenyl]-ureidomethyl}-phenoxy)-pyridine-2-carboxylic acid methylamide] | 0.425 µM | – |
| CNC(=O)c1cc(Oc2ccc(CNC(=O)Nc3cc4ccccc4nc3OC)cc2)ccn1 [compound 11] | – | IC50 [2]: 0.19 µM |
| CCn1cc(C(F)(F)F)cc(NC(=O)NCc2ccc(Oc3ccnc(C(=O)NC)c3)cc2)c1=O [compound 11] | – | IC50 [2]: 0.091 µM |
| CNC(=O)c1cc(Oc2ccc(CNC(=O)Nc3ccccc3OC)cc2)ccn1 [compound 14] | 1.9 µM | – |
| CNC(=O)c1cc(Oc2ccc(CCC(=O)Nc3ccc(Cl)c(C(F)(F)F)c3)cc2C)ccn1 [compound 3] | – | IC50 (Table 6, 4 nM DDR2 kinase domain, 150 μM ATP): 1.6 µM |
| CNC(=O)c1cc(Oc2ccc(CNC(=O)Nc3cc(Cl)cnc3Cl)cc2)ccn1 [compound 93, 4-{4-[3-(2,5-Dichloro-pyridin-3-yl)-ureidomethyl]-phenoxy}-pyridine-2-carboxylic acid methylamide] | 0.042 µM | – |
| CNC(=O)c1cc(Oc2ccc(CNC(=O)Nc3cccnc3)cc2)ccn1 [compound 5] | – | IC50 [2]: 15 µM |
| CCc1cccc(NC(=O)NCc2ccc(Oc3ccncc3)cc2)c1 [compound 61, 1-(3-Ethyl-phenyl)-3-[4-(pyridin-4-yloxy)-benzyl]-urea] | 0.49 µM | – |
| Cc1cc2nccc(Oc3ccc(CNC(=O)Nc4ccccc4)cc3)c2o1 [compound 249, 1-[4-(2-Methyl-furo[3,2-b]pyridin-7-yloxy)-benzyl]-3-phenyl-urea] | 0.65 µM | – |
| O=C(NCc1ccc(Oc2ccncc2)cc1)Nc1cc(Cl)cc(Cl)c1 [compound 57, 1-(3,5-Dichloro-phenyl)-3-[4-(pyridin-4-yloxy)-benzyl]-urea] | 1.2 µM | – |
| CNC(=O)c1cc(Oc2ccc(CNC(=O)Nc3cc(Cl)c(C)cc3OC)cc2C)ccn1 [compound 151, 4-{4-[3-(5-Chloro-2-methoxy-4-methyl-phenyl)-ureidomethyl]-2-methyl-phenoxy}-pyridine-2-carboxylic acid methylamide] | 0.1 µM | – |
| CNC(=O)c1cc(Oc2ccc(CNC(=O)Nc3cc(C(F)(F)F)c(Cl)cc3OC)cc2)ccn1 [compound 67, 4-{4-[3-(4-Chloro-2-methoxy-5-trifluoromethyl-phenyl)-ureidomethyl]-phenoxy}-pyridine-2-carboxylic acid methylamide] | 0.175 µM | – |
| CNC(=O)c1cc(Oc2ccc(CNC(=O)Nc3ccc(OC)nc3)cc2)ccn1 [compound 17] | – | IC50 [2]: 5.6 µM |
| Cc1cccc(NC(=O)NCc2ccc(Oc3ccncc3)cc2)c1C [compound 24] | ≥ 100 µM | – |

More lines, main results first:

| IC50 [1] | SMILES | other results |
| --- | --- | --- |
| 0.034 µM | CNC(=O)c1cc(Oc2ccc(CNC(=O)Nc3cc(C(F)(F)F)ccc3OCCN)cc2)ccn1 [compound 121, 4-(4-{3-[2-(2-Amino-ethoxy)-5-trifluoromethyl-phenyl]-ureidomethyl}-phenoxy)-pyridine-2-carboxylic acid methylamide] | – |
| 1.7 µM | Cc1ccc(Cl)cc1NC(=O)NCc1ccc(Oc2ccncc2)cc1 [compound 50, 1-(5-Chloro-2-methyl-phenyl)-3-[4-(pyridin-4-yloxy)-benzyl]-urea] | – |
| 0.069 µM | CNC(=O)c1cc(Oc2ccc(CNC(=O)Nc3cc(C)ccc3OC)cc2)ccn1 [compound 75, 4-{4-[3-(2-Methoxy-5-methyl-phenyl)-ureidomethyl]-phenoxy}-pyridine-2-carboxylic acid methylamide] | – |
| 1.7 µM | O=C(NCc1ccc(Oc2ccncc2)cc1)Nc1ccc(Br)c(C(F)(F)F)c1 [compound 64, 1-(4-Bromo-3-trifluoromethyl-phenyl)-3-[4-(pyridin-4-yloxy)-benzyl]-urea] | – |
| 4 µM | COc1cccc(NC(=O)NCc2ccc(Oc3ccncc3)cc2)c1 [compound 45, 1-(3-Methoxy-phenyl)-3-[4-(pyridin-4-yloxy)-benzyl]-urea] | – |
| 8.8 µM | CC(=O)c1ccc(NC(=O)NCc2ccc(Oc3ccncc3)cc2)cc1 [compound 47, 1-(4-Acetyl-phenyl)-3-[4-(pyridin-4-yloxy)-benzyl]-urea] | – |
| 0.081 µM | CNC(=O)c1cc(Oc2ccc(CNC(=O)Nc3cc(C(F)(F)F)c(Cl)cc3OCCN(C)C)cc2)ccn1 [compound 95, 4-(4-{3-[4-Chloro-2-(2-dimethylamino-ethoxy)-5-trifluoromethyl-phenyl]-ureidomethyl}-phenoxy)-pyridine-2-carboxylic acid methylamide] | – |
| ≥ 100 µM | O=C(NCc1ccc(Oc2ccncc2)cc1)Nc1ccccc1Br [compound 48, 1-(2-Bromo-phenyl)-3-[4-(pyridin-4-yloxy)-benzyl]-urea] | – |
| 0.042 µM | O=C(NCc1ccc(Oc2ccncc2)cc1)Nc1cc(C(F)(F)F)ccc1Cl [compound 43, 1-(2-Chloro-5-trifluoromethyl-phenyl)-3-[4-(pyridin-4-yloxy)-benzyl]-urea] | – |
| 0.07 µM | Cc1cc2nccc(Oc3ccc(CNC(=O)Nc4cc(C)c(Cl)cc4OCCN(C)C)cc3C)c2o1 [compound 253, 1-[4-Chloro-2-(2-dimethylamino-ethoxy)-5-methyl-phenyl]-3-[3-methyl-4-(2-methyl-furo[3,2-b]pyridin-7-yloxy)-benzyl]-urea] | – |
| 0.089 µM | CCOc1ccc(C(F)(F)F)cc1NC(=O)NCc1ccc(Oc2ccnc(C(=O)NC)c2)cc1 [compound 230, 4-{4-[3-(2-Ethoxy-5-trifluoromethyl-phenyl)-ureidomethyl]-phenoxy}-pyridine-2-carboxylic acid methylamide] | – |
| 10 µM | CSc1ccc(NC(=O)NCc2ccc(Oc3ccncc3)cc2)cc1 [compound 51, 1-(4-Methylsulfanyl-phenyl)-3-[4-(pyridin-4-yloxy)-benzyl]-urea] | – |
| 0.025 µM | CNC(=O)c1cc(Oc2ccc(CNC(=O)Nc3cc(C(F)(F)F)c(Cl)cc3OCCN(C)C)cc2C)ccn1 [compound 152, 4-(4-{3-[4-Chloro-2-(2-dimethylamino-ethoxy)-5-trifluoromethyl-phenyl]-ureidomethyl}-2-methyl-phenoxy)-pyridine-2-carboxylic acid methylamide] | – |
| 0.031 µM | Cc1cc(NC(=O)NCc2ccc(Oc3ccnc(N)c3)c(C)c2)c(OCCN(C)C)cc1Cl [compound 254, 1-[4-(2-Amino-pyridin-4-yloxy)-3-methyl-benzyl]-3-[4-chloro-2-(2-dimethylamino-ethoxy)-5-methyl-phenyl]-urea] | – |
| 0.44 µM | Cc1cc(NC(=O)NCc2ccc(Oc3cc(N)ncn3)c(C)c2)c(OCCN(C)C)cc1Cl [compound 251, 1-[4-(6-Amino-pyrimidin-4-yloxy)-3-methyl-benzyl]-3-[4-chloro-2-(2-dimethylamino-ethoxy)-5-methyl-phenyl]-urea] | – |
| 1.7 µM | COc1ccccc1NC(=O)NCc1ccc(Oc2ccncc2)cc1 [compound 36, 1-(2-Methoxy-phenyl)-3-[4-(pyridin-4-yloxy)-benzyl]-urea] | – |
| 0.31 µM | CNC(=O)c1cc(Oc2ccc(CNC(=O)Nc3cc(C)c(Cl)cc3OCCN3CCOCC3)cc2C)ccn1 [compound 138, 4-(4-{3-[4-Chloro-5-methyl-2-(2-morpholin-4-yl-ethoxy)-phenyl]-ureidomethyl}-2-methyl-phenoxy)-pyridine-2-carboxylic acid methylamide] | – |
| 0.44 µM | COc1ccc(OC)c(NC(=O)NCc2ccc(Oc3ccncc3)cc2)c1 [compound 15] | – |
| 0.064 µM | CNC(=O)c1cc(Oc2ccc(CNC(=O)Nc3cc(C(F)(F)F)c(Cl)cc3OCCNS(C)(=O)=O)cc2)ccn1 [compound 194, 4-(4-{3-[4-Chloro-2-(2-methanesulfonylamino-ethoxy)-5-trifluoromethyl-phenyl]-ureidomethyl}-phenoxy)-pyridine-2-carboxylic acid methylamide] | – |
| 0.23 µM | CNC(=O)c1cc(Oc2ccc(CNC(=O)Nc3cc(OC)c([N+](=O)[O-])cc3OC)cc2)ccn1 [compound 81, 4-{4-[3-(2,5-Dimethoxy-4-nitro-phenyl)-ureidomethyl]-phenoxy}-pyridine-2-carboxylic acid methylamide] | – |
| ≥ 100 µM | Cc1ccccc1NC(=O)NCc1ccc(Oc2ccncc2)cc1 [compound 29] | – |
